# According to the OPERA property sets (Mansouri et al. 2018):
# Where a SMILES comes first, the peptide text is derived from it. [ ]: non-standard residue; d: D form. Orn = NCCC[CH](N)C(=O)O
row,SMILES,logP
1,Cc1ncc([N+](=O)[O-])n1CC#N,-0.07
2,Cc1cccc(OC(C)C(=O)NNC(C)C)c1 (centres undefined),1.88
3,N#CC(CCc1ccc(Cl)cc1)(Cn1cncn1)c1ccccc1 (centres undefined),3.23
4,Clc1ccc(-c2cc(Cl)c(Cl)cc2Cl)c(Cl)c1,7.21
5,COC1(NC(=O)CSC(F)F)C(=O)N2C(C(=O)OCOC(=O)C(C)(C)C)=C(CSc3nnnn3C)CSC21 (centres undefined),2.31
6,NC(=O)COc1cccc(Cc2cnc(N)nc2N)c1,0.28
7,COC(=O)NCCn1c([N+](=O)[O-])cnc1C,0.02
8,O=[N+]([O-])c1nccn1CCC(O)CO (centres undefined),-0.9
9,CC1(c2ccccc2)OC(=O)NC1=O (centres undefined),1.85
10,CC12CCC(=O)C=C1CCC1C2CCC2(C)C1CCC21CCC(=O)O1 (centres undefined),2.98
11,N#CC(C#N)=NNc1ccccc1C(F)(F)F,4.2
12,Cn1c([N+](=O)[O-])cnc1-c1ccccc1,1.58
13,CC(C)NC(=O)C1(O)C(C)CC2C3CCC4=CC(=O)C=CC4(C)C3(F)C(O)CC21C (centres undefined),2.43
14,CC(=O)C1(O)C(C)CC2C3CCC4=CC(=O)C=CC4(C)C3(F)C(O)CC21C (centres undefined),2.35
15,O=C(O)c1ccccc1N1C(=O)CCC1=O,1.55
16,CC1CC2C3CCC4=CC(=O)C=CC4(C)C3(F)C(O)CC2(C)C1(O)C(=O)NC1CCCCC1 (centres undefined),3.54
17,O=C1CN=C(c2ccccc2)c2cc(C(F)(F)F)ccc2N1,3.1
18,Cc1cc(O)cc(C)c1O,1
19,CC1(CO)COC(Cn2cncn2)(c2ccc(Cl)cc2Cl)OC1 (centres undefined),2.1
20,c1ccc([C@H]2CN3CCSC3=N2)cc1,1.84
21,O=C(Cn1c(=O)sc2ccc(Cl)cc21)N1CC[N+]([O-])(CCO)CC1,0.05
22,CCOc1ccccc1NC(=O)OCCN1CCOCC1,2.27

row,SMILES,logP
1,CCCCCCCC(=O)OC(C(=O)NC1C(=O)N2C(C(=O)O)=C(C)CSC12)c1ccccc1 (centres undefined),3.54
2,O=[N+]([O-])c1cnc(-c2ccc(F)cc2)[nH]1,1.52
3,C#CCOc1c(Cl)cc(NC=NOC(C)C)cc1Cl,3.9
4,CCC(C)NC(=O)C(Br)=Cc1ccccc1 (centres undefined),2.66
5,O=C(O)CCc1cc(=O)c2cc3c(cc2o1)CCCC3,2.85
6,CCNC(=O)c1cccc2c1C(=O)C(=O)N(CC)C2=O,0.3
7,O=[N+]([O-])C=C1NCCN1Cc1ccc(Cl)nc1,-0.19
8,Clc1ccc(Cl)c(-c2c(Cl)ccc(Cl)c2Cl)c1Cl,7.12
9,CC(=O)Nc1ccnnc1,-0.41
10,CSCCC(NC(C)=O)C(=O)NC(Cc1ccccc1)C(N)=O (centres undefined),0.42
11,Cc1cccc(C)c1NC(=O)c1ccc(CN2CCOCC2)cc1,2
12,OC1CCN(CCCc2ccc(CSc3ccccc3)cc2)CC1,3.67
13,CC(CO)OC(C)CO (centres undefined),-0.67
14,CCC1CC2C3CCC4=CC(=O)CCC4C3CCC2(C)C1C(=O)CF (centres undefined),4.66
15,CCCCCCC(=O)N1CCCC1=O,3.04
16,CCC(C)NC(=O)C(=Cc1ccccc1)c1ccccc1 (centres undefined),4.05
17,CCCCCNC(=O)C1(O)C(C)CC2C3CCC4=CC(=O)C=CC4(C)C3(F)C(O)CC21C (centres undefined),3.64
18,O=c1[nH]c2ccccc2n1C1CCN(CC(O)C2COc3ccccc3O2)CC1 (centres undefined),3.43
19,CSCCC(NC(C)=O)C(=O)NC(C(N)=O)C(C)C (centres undefined),-0.28
20,CCCCC(=O)OCCOCn1cnc2c(=O)[nH]c(N)nc21,0.37
21,COc1cc2c(c(OC)c1OC)-c1ccc(OC)c(=O)cc1C(NC(=O)C(F)(F)F)CC2 (centres undefined),1.72
22,CC(=O)N(CCO)c1c(I)c(C(=O)NC(CO)CO)c(I)c(C(=O)NC(CO)CO)c1I,-2.33

row,SMILES,logP
1,CCCCN1C(=O)C(=O)c2ccccc2C1=O,2.18
2,CCCOc1cccc(NC(=O)OCCN2CCOCC2)c1,3.04
3,CCC(C)(C)c1ccc(C2CCCC(O)C2)c(O)c1 (centres undefined),4.32
4,CNC(=O)OCc1c2c(n3c1C(OC(C)=O)CC3)C(=O)C(C)=C(OC)C2=O (centres undefined),2.39
5,O=C1NC(=O)N(Cc2ccccc2)C(=O)C1=O,1.02
6,O=C(CCCN1CCC(C(O)(c2ccccc2)c2ccccc2)CC1)c1ccccc1,4.42
7,CCCC(CCC)(NC(C)=O)C(N)=O,0.75
8,CN1C(=O)CN=C(c2ccccc2Cl)c2cc([N+](=O)[O-])ccc21,2.56
9,COC(=O)c1ccccc1CS(=O)(=O)Nc1nc(OC)cc(OC)n1,2.4
10,N#CC(C#N)=NNc1c(Cl)cccc1Cl,4.51
11,CNC(=O)C1(O)C(C)CC2C3CCC4=CC(=O)C=CC4(C)C3(F)C(O)CC21C (centres undefined),1.54
12,CC(C)(N=C(O)C(Br)C(C)(C)C)c1ccccc1 (centres undefined),3.47
13,CC(C)(C)C(=O)C(C#N)=NNc1ccc(Cl)cc1C(F)(F)F,5.67
14,C#CCOc1c(Cl)cc(NC=NOCSC)cc1Cl,3.6
15,Clc1ccc(Cl)c(-c2ccc(Cl)c(Cl)c2Cl)c1,6.85
16,CC1=C(c2ccccc2)CCN(C)C1,3.18
17,CCCCC(=O)OC(C(=O)NC1C(=O)N2C(C(=O)O)=C(C)CSC12)c1ccccc1 (centres undefined),2.23
18,CC(=O)NC(CC(C)C)C(=O)NC(CCCN)C(=O)NC(Cc1ccccc1)C(N)=O (centres undefined) (Ac-Leu-[Orn]-Phe-NH2; configuration not given here),0.53
19,COc1nc(C(Cl)(Cl)Cl)nc(C(Cl)(Cl)Cl)n1,3.64
20,Cc1ncc([N+](=O)[O-])n1CCOC(=O)N(C)C,0.47
